# pIC50: −log10 of the molar value.
# Key:
# [1] = system: IFN induction in virus-stimulated THP1 cells; assay: Human cGAS cell assay, virus-stimulated THP1-Dual cells (THP1(vir) IC50); type: cell-based; settings: THP-1, 18 h, Table 1, baculovirus-stimulated THP1-Dual cells, Lucia luciferase, 18 h, read-out: THP(vir) IC50
# Summary of the method: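 THP1-Dual cells with an IRF-driven Lucia luciferase reporter, activated by baculovirus-delivered dsDNA to drive cGAS, with 8-point compound series from 10 µM top (~1:5 steps) in 1% DMSO. After 18 h at 37 °C, luminescence read; IC50 via 4-parameter logistic against virus-free low control.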
# [2] = system: IFN induction in cGAMP-stimulated THP1 cells; assay: cGAMP stimulated counter cell assay in THP1-Dual cells (THP1(cGAMP) IC50); type: cell-based, human; settings: Table 1; for pIC50: Homo sapiens, THP-1, counter assay, 10 μM cGAMP stimulation, read-out: THP(cGAMP) IC50; for Ratio THP(cGAMP) IC50/THP(vir) IC50: selectivity for cGAS-inhibition
# Summary of the method: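 THP1-Dual cells (5000/well, RPMI/10% FCS) stimulated with cGAMP to activate the pathway directly downstream of cGAS; compounds at 8 concentrations, top 10 μM, ~1:5 steps, 1% DMSO. After 18 h at 37 °C, Lucia luciferase luminescence read; IC50 from 4-parameter logistic fit normalised to low and high controls.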
# [3] = system: IFN induction in dsDNA-stimulated human whole blood; assay: Human whole blood assay (hWB IC50), dsDNA stimulated, IFNα2α production; type: cell-based; settings: Table 1
# Method: 6.3 Method: Human Whole Blood Assay (Human WB IC50)
# For the detection of cellular cGAS activity human whole blood was stimulated by transfection with double stranded DNA. Pathway activity was monitored by measuring the IFNα2α production.
# Compounds were delivered as 10 mM DMSO solution and serially diluted and transferred to the 96-well cell culture plate (Corning #3595), prefilled with 20 μl OptiMEM (Gibco, #11058-021) in each well, using an Echo acoustic dispenser. Typically, 8 concentrations were used with the highest concentration at 10 μM in the final assay volume followed by ^˜1:5 dilution steps. DMSO concentration was set to 0.1% in the final assay volume. The 96-well assay plate contained 10 test compounds, and DMSO in control wells.
# Collection of human whole blood from 3 or more healthy donors (male or female, no medication for 7 days except contraceptive and thyroxine) as Na-Citrate blood (e.g. 3.8% in Monovettes from Sarstedt) was conducted in parallel. Whole blood was kept at room temperature for a maximum of 3 hours after collection until use in the assay. 160 μl of the whole blood samples was transferred to each well of the 96-well assay plates filled with compound/OptiMEM. All assay plates were prepared as duplicates with blood from different donors. Blood plates were kept at room temperature for 60 minutes and continuous shaking with 450 rpm, covered with the lid, but not sealed.
# 20 μl OptiMEM and 9.6:1 Fugene was added to all low control wells.
# After covering assay plates with aera seals and the lid, blood plates were kept at room temperature for 30 minutes and continuous shaking with 450 rpm, followed by an overnight incubation of 22 h at 37° C. in the incubator, without shaking.
# For the detection of IFNα-2α in human plasma, the biotinylated capture antibody (Antibody set IFNA2, Meso Scale Diagnostics #B21VH-3, including coating and capture antibody) was diluted 1:17.5 in Diluent 100 (Meso Scale Diagnostics #R50AA-4), according to the manufacturer's directions. U-Plex MSD GOLD 96-well Small Spot Strepavidin SECTOR Plates (Meso Scale Diagnostics #L45SA-5) were coated with 25 μl diluted capture antibody. Coated plates were incubated for 60 min at room temperature under continuous shaking at 700 rpm. MSD IFNα-2α plates were washed three times with 150 μl wash buffer (1× HBSS, 0.05% Tween).
# After blocking the plates with 100 μl block solution/well (1× HBSS with 0.2% Tween, 2% BSA) for 60 min at room temperature and continuous shaking at 700 rpm, plates were emptied as dry as possible by dumping just before continuing with the human plasma.
# Whole Blood assay plates were centrifuged at 1600 rpm for 10 minutes. 25 μl of supernatant was transferred with a pipetting robot from each whole blood plate to the corresponding IFNα-2α plate. Plates were sealed with microplate seals and kept at room temperature again under continuous shaking at 700 rpm for two hours.
# Next MSD IFNα-2α plates were washed three times with 150 μl wash buffer (1× HBSS, 0.05% Tween), before adding 25 μl MSD SULFO-TAG IFNα-2α Antibody solution (1:100 diluted in Diluent 3 (Meso Scale Diagnostics #R50AP-2) to each well of the plates.
# Afterwards plates were sealed with microplate seals and kept at room temperature again under continuous shaking at 700 rpm for two hours. Finally, MSD IFNα-2α plates were washed three times with 150 μl wash buffer (1× HBSS, 0.05% Tween). 150 μl 2× Read buffer was added to each well and plates were immediately measured with the MSD Sector S600 Reader using the vendor barcode.
# Data Evaluation and Calculation:
# For data evaluation and calculation, % control calculation of each well was based on the mean of high (DNA stimulated control) and mean of low (unstimulated control) controls by using the following formula:
# [counts(sample)−counts(low))/(counts(high)−counts(low))]*100
# The IC50-values were calculated using the standard 4 parameter logistic regression formula. […]
SMILES,pIC50 [1],pIC50 [2],Ratio THP(cGAMP) IC50/THP(vir) IC50 [2],pIC50 [3]
O=C(O)[C@@H]1C[C@H]2CN1c1nc(nc3c1oc1ccccc13)CCOCCCC(=O)N1CCC(CC1)n1c(nc3ccc(F)cc31)O2 [Example 1.04],7.36,< 5.00,>229,7.36
O=C(O)[C@@H]1C[C@H]2CN1c1nc(nc3c1oc1ccccc13)OCCCCOC(=O)N1CCC(CC1)n1c(nc3ccccc31)O2 [Example 11.01],6.74,< 6.00,>56,6.86
Cc1cccc2c1nc1n2[C@@H]2CCN(C[C@H]2C)C(=O)CCCCCC(F)(F)c2nc(c3oc4ccccc4c3n2)N2C[C@H](C[C@H]2C(=O)O)O1 [Example 1.27],6.74,5.22,33,5.80
C[C@H]1CN2CC[C@@H]1n1c(nc3ccc(Cl)cc31)O[C@H]1C[C@@H](C(=O)O)N(C1)c1nc(nc3c1oc1ccccc13)C(F)(F)CCCCCC2=O [Example 1.13],8.31,4.96,2251,7.82
